US20250268815A1, “TRANSDERMAL DELIVERY SYSTEMS FOR ADMINISTRATION OF HYDROPHILIC MOLECULES AND METHODS OF MAKING AND USING SAME” (STATE OF ISRAEL, MINISTRY OF AGRICULTURE & RURAL …, priority 2021, published 2025)

Assays:
[1] = test system: Human skin (full thickness)

Row | insulin permeation across human skin ex vivo [1] | Compound | trans-epidermal water loss (TEWL), Baseline (skin; before application, 5 hr exposure experiment) [g/m^2/hr] | increase of water loss (TEWL) (skin; positive control, same experimental settings) [fold]
1 |  | CCCCCCCCCCCCOS(=O)(=O)[O-].[Na+] [SDS, sodium dodecyl sulfate] | 10.0 ± 2.4 | ~3
2 | did not enhance insulin permeation | Sodium carboxymethyl cellulose [CMC] |  | 
